Reference: US11304919B2, “Utilization of cilastatin in inhibiting renal disorder” (NIIGATA UNIVERSITY, priority 2018, dated 2022)

Assays:
[1] = target: megalin (Mus musculus, UniProt A2ARV4); assay: EPMA mapping of iodine in kidney tissue of kidney-specific megalin complete knockout (NDRG1-Cre) and control mice (Reference Example 2); settings: control (uninduced) mice; 200 μL tail vein; kidneys extracted 3 h later; FIGS. 4-9
Description: (§1) EPMA is an electron microprobe (EMP) instrument that analyzes the constituent elements of a substance of interest by irradiating electron beams onto the substance and measuring the wavelengths and intensities of characteristic X-rays unique to the different elements, which are generated by the electron beams. […] The behaviors of contrast media per se can be verified by analyzing iodine content distribution.
(§2) In order to use right kidneys for analysis, 3 mm-thick sections containing a kidney pedicle portion were prepared, embedded in OCT compound, freeze-fixed with liquid nitrogen, and stored at −80° C.
(§3) Next, the stored sections were sliced at a thickness of 4 μm using a cryostat (CM1850, Leica Biosystems), and the obtained slices were attached onto carbon-coated grids and freeze-dried overnight.
(§4) 378 μm^2 cortical areas in the prepared tissue slices were analyzed by EPMA (EPMA 1610, Shimadzu Corporation, Kyoto, Japan) to map iodine present in the structures of the contrast media.

[2] = tested on: megalin; assay: as above; settings: kidney-specific megalin complete knockout mice; 200 μL tail vein; kidneys extracted 3 h later; FIGS. 4-9
Description: as §1, §2, §3, §4

[3] = tested on: megalin; assay: Contrast nephropathy model in kidney-specific megalin partial knockout mice (apoE-Cre), megalin/KIM-1 immunostaining (Reference Example 3); assay type: in vivo, mouse; settings: 200 μL iomeprol, 48 h after administration, FIGS. 10A-10C
Experimental: Similar murine models of contrast nephropathy to those of Reference Example 1 were constructed using kidney-specific megalin partial knockout mice (apoE-Cre), and were used to verify the involvement of megalin in the onset of contrast-induced renal injuries.
Left kidneys were extracted from the apoE-Cre knockout mice, and 14 days later, right kidney pedicles were ligated for 30 minutes. Thereafter, reperfusion was carried out. After 24 hours from the start of reperfusion, 200 μL of iomeprol or normal saline was administered from the tail vein.
The stained slices were mounted with Slow Fade Gold Antifade Reagent (Life Technologies) and observed using a fluorescence microscopy (BZ-9000, Keyence). In particular, it was verified whether megalin and KIM-1 were expressed in the S1 and S2 segments of renal proximal tubules.

[4] = tested on: C57BL/6J mice; assay: Murine model of contrast nephropathy (Reference Example 1); assay type: in vivo, mouse
Experimental: Murine models of contrast nephropathy were constructed.
Left kidneys were extracted from C57BL/6J mice (male, aged 9-12 weeks, Charles River Laboratories International), and 14 days later, right kidney pedicles were ligated for 30 minutes. Thereafter, reperfusion was carried out. For the iomeprol-treated group, 200 μL of iomeprol was administered from the tail vein after 24 hours from the start of reperfusion. For the control group, 200 μL of normal saline instead of iomeprol was administered from the tail vein. After 48 hours from the administration, the animals in both groups were euthanized and evaluated.
For 24 hours before euthanization, urine samples were collected using a metabolic cage. […] The collected blood samples were centrifuged for 30 minutes at 800 g at room temperature to separate and collect the serum. The obtained urine and serum samples were stored at −80° C. until analysis.
For biochemical evaluation of renal injuries, serum creatinine (Cr) and urea nitrogen (MN) levels, and urinary Cr and β-D-N-acetylglucosaminidase (NAG) were measured. Serum MN and Cr measurements were contracted to Oriental Yeast Co., Ltd., and urinary NAG and Cr measurements were to SRL, Inc.
The obtained thin slices were stained with periodic acid-Shiff (PAS) and immunostained with the renal injury marker Kidney Injury Molecule-1 (KIM-1). The immunostaining was performed using VECTASTAIN Elite ABC Kit (Vector Laboratories, Inc.).

[5] = target: megalin (Rattus norvegicus, UniProt P98158); assay: Direct binding of contrast solid-phased magnetic beads to megalin in brush border proteins, WB with anti-megalin antibody (Reference Example 4); parameters: the cortex portions of Sprague-Dawley (SD) rats were ground to prepare a suspension; from tissue; host or cells: Sprague-Dawley rat kidney cortex (brush border proteins, method of Orlando et al.); settings: 0 mM and 10 mM iomeprol solid-phased beads; rat BBP 1 mg/mL; 4° C., 4 h; FIG. 20
Experimental: Direct binding between an iodinated contrast medium and megalin was verified using contrast solid-phased magnetic beads.
A starting powder of iodinated contrast medium was dissolved, just before use, in glycidylmethacrylate-coated magnetic beads (FG Beads®, particle size: 0.2 μm, produced by Tamagawa Seiki Co., Ltd.) to initiate chemical bonding between surface carboxyl groups and hydroxyl groups present in the contrast medium, whereby contrast solid-phased magnetic beads were prepared.
The contrast medium iomeprol was purchased from BOC Science.
At feed concentrations of 0 mM, 3 mM and 10 mM, iomeprol was brought to a solid phase by chemical bonding. The preparation of the iomeprol solid-phased beads was contracted to Tamagawa Seiki Co., Ltd.
According to the method of Orlando, et al. (Proc. Natl. Acad. Sci. USA, 1992, vol. 89, p. 6698-6702), the cortex portions of Sprague-Dawley (SD) rats were ground to prepare a suspension, which was adjusted to a protein concentration of 1 mg/mL to obtain a BBP solution.
Five milligrams each of the 0 mM and 10 mM contrast solid-phased magnetic beads were dispersed and washed in 200 μL of 100 mM KCL buffer (20 mM HEPES-NaOH (pH 7.9), 100 mM KCl, 1 mM MgCl2, 0.2 mM CaCl2), 0.2 mM EDTA, 10% (v/v) glycerol, 0.1% NP-40, 1 mM DTT, 0.2 mM PMSF). […]

megalin (Mus musculus, UniProt A2ARV4), sequence (A2ARV4 26-4660): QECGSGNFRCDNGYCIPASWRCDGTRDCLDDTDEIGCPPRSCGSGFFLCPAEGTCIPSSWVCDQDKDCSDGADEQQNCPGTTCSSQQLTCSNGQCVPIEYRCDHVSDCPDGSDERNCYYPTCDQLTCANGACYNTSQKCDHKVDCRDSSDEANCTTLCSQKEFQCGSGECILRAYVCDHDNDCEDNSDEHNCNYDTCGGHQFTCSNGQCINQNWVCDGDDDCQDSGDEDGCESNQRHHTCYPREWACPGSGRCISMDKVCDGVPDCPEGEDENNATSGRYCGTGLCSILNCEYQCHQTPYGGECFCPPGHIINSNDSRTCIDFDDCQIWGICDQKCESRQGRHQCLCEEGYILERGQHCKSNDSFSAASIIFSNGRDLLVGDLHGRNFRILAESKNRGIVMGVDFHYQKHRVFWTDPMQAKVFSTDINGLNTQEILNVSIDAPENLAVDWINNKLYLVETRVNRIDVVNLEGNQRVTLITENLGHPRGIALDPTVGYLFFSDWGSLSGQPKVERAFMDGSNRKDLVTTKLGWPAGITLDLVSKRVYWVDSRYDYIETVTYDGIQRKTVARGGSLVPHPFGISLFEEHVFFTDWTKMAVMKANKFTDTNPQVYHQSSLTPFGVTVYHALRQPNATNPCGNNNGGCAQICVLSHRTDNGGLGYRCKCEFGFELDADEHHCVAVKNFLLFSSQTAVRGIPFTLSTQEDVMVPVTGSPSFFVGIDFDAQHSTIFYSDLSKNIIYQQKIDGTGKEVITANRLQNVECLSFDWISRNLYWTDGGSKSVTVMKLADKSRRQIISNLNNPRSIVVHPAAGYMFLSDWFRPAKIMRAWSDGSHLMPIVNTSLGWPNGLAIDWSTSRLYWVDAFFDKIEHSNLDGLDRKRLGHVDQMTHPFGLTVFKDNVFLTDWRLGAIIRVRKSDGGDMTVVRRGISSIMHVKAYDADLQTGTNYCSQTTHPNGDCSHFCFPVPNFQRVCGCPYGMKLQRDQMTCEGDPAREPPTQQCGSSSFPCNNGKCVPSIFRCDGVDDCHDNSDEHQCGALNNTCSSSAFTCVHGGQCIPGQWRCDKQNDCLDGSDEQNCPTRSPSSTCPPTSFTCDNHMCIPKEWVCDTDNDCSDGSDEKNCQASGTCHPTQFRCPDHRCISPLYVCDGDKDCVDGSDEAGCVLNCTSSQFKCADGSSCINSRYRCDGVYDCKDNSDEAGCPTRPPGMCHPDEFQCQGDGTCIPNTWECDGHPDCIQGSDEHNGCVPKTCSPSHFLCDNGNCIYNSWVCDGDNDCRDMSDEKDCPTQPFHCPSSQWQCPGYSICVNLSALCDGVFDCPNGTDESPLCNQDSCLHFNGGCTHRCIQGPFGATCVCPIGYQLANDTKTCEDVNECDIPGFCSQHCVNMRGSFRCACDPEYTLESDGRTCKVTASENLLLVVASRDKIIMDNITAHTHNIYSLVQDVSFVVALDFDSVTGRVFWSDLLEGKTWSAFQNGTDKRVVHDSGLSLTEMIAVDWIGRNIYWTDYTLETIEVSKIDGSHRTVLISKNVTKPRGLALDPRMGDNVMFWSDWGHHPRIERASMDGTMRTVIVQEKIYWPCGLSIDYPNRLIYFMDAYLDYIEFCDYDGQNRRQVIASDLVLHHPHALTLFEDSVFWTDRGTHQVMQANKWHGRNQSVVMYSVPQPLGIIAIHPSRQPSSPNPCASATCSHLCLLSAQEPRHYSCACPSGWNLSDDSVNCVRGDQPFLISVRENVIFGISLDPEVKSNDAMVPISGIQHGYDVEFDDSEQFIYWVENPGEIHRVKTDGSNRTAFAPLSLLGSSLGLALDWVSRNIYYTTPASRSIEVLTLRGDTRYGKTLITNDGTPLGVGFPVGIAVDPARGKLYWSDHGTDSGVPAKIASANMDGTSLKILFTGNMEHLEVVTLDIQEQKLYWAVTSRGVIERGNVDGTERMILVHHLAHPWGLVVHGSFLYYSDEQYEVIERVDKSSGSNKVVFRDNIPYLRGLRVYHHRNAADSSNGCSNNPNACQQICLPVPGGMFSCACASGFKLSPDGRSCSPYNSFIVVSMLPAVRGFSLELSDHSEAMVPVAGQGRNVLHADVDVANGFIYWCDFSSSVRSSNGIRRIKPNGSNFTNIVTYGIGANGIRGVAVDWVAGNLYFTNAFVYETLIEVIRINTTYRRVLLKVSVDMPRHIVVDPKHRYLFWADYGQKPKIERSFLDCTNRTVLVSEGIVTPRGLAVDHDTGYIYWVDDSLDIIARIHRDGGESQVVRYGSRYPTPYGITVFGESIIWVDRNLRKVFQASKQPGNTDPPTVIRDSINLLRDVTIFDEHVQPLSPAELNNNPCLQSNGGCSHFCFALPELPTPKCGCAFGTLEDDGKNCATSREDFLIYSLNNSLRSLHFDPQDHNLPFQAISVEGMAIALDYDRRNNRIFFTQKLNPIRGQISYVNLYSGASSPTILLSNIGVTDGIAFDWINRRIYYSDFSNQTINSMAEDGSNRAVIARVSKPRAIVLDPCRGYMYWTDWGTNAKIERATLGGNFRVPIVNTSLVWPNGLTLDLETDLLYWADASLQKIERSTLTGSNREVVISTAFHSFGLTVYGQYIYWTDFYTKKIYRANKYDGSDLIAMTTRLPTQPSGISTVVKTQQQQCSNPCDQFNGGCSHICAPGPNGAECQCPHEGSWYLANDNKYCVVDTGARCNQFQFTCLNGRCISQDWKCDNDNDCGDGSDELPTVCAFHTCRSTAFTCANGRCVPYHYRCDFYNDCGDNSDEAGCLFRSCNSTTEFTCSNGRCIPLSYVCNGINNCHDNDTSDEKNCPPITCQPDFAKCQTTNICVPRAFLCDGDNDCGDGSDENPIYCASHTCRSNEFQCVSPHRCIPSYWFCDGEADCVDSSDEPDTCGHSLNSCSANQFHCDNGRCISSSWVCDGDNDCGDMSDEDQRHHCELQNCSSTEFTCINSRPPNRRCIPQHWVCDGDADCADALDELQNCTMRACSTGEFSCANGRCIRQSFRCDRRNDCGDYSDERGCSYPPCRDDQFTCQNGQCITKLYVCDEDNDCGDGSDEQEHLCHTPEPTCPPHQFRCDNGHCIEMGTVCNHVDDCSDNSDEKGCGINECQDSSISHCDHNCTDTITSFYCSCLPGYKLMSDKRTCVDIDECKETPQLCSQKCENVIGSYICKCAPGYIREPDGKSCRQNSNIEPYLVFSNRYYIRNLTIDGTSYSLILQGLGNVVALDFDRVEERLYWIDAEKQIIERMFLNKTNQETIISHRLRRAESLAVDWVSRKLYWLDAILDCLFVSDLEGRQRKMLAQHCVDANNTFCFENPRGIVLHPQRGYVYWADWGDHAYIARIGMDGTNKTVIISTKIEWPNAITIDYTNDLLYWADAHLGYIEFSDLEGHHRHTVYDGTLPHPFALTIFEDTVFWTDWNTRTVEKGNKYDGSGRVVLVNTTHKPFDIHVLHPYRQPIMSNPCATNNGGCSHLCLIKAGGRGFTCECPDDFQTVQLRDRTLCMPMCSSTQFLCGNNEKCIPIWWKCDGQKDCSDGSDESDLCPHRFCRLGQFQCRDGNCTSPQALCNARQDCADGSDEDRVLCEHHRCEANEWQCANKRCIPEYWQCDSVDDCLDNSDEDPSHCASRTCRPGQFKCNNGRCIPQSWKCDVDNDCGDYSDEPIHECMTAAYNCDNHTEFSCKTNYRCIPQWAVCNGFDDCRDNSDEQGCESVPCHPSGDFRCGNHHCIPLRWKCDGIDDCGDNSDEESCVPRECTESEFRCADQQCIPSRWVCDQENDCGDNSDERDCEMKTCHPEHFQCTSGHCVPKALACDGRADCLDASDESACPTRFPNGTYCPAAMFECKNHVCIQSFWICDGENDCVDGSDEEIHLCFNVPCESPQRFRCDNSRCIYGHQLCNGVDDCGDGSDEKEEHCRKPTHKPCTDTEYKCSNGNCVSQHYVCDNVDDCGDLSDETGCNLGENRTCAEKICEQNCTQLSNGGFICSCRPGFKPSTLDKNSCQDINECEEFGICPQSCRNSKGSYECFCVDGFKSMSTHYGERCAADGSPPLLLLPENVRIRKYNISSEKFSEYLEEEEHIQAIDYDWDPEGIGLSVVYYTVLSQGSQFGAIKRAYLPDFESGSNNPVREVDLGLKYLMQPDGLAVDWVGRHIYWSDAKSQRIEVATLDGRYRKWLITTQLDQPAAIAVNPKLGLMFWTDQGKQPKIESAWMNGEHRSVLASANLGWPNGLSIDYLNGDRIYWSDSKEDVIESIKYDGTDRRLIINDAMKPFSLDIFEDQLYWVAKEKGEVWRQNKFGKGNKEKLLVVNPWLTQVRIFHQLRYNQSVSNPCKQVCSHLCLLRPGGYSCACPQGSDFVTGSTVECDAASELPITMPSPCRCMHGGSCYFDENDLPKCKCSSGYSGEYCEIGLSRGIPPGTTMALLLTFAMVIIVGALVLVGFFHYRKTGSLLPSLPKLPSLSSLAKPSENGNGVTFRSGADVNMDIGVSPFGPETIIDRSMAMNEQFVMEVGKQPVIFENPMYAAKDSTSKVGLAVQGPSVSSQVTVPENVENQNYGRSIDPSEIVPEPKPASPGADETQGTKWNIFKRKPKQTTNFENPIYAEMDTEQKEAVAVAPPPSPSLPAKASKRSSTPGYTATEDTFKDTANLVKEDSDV

CN(C(=O)CO)c1c(I)c(C(=O)NCC(O)CO)c(I)c(C(=O)NCC(O)CO)c1I (stereo not shown) [iomeprol]
iodine detected in kidney slices by EPMA, control mice [1]: High concentrations of iodine were detected | iodine contents detected in kidney slices by EPMA, NDRG1-Cre mice versus control mice [2]: lower | KIM-1 expression relative to megalin expression in renal proximal tubular epithelial cells [3]: expressed in a specific manner in the renal proximal tubular epithelial cells with expression of megalin | serum Cr compared to the control (NS) group ([4]; 200 μL iomeprol tail vein 24 h after reperfusion, evaluated 48 h after administration, FIG. 1): significant (t-test) increase | KIM-1 expression in kidney tissue (immunostaining) ([4]; 200 μL iomeprol, 48 h after administration, FIG. 2): widely expressed mainly in the S1 and S2 segments of renal proximal tubular epithelial cells | PAS staining of kidney tissue ([4]; 200 μL iomeprol, 48 h after administration, FIG. 3): formation of vacuoles was observed | megalin band in eluted samples after reaction of BBP with contrast medium-bound beads (WB) [5]: not detected
